Legend:
SPC = experiment: Treated salmon under refrigeration: SPC; details: Treated With O3
Coliform = experiment: Treated salmon under refrigeration: Coliform; details: Treated With O3

O=[O+][O-] [O3, Ozone]
Log SPC (SPC; day 3): 0
SPC (SPC; day 3): 1
Log SPC (SPC; day 6): 0
SPC (SPC; day 6): 1
Log SPC (SPC; day 8): 1.643
SPC (SPC; day 8): 44
Log SPC (SPC; day 9): 0
SPC (SPC; day 9): 1
Log SPC (SPC; day 10): 1.146
SPC (SPC; day 10): 14
Coliform (Coliform; day 3): 0.5
Coliform (Coliform; day 6): 0.5
Coliform (Coliform; day 8): 0.5
Coliform (Coliform; day 9): 0.5
Coliform (Coliform; day 10): 0.5

From US20080171117A1, “METHODS FOR REDUCING MICROBIAL CONTAMINATION IN SEAFOOD PROCESSING” (Tasker Products Corp., priority 2004, published 2008)
